From patent US7241724B2, “Personal care compositions comprising alkyl phosphate surfactants and selected auxiliary surfactants” (priority 2005, dated 2007)

Test system: Zein protein
Assay: Zein solubilization test (mildness)
Method: • 1. Prepare a 5 wt. % aqueous solution of the surfactant. If the natural pH of the system differs from that desired, adjust by incremental addition of acid or base. • 2. Mix 4 grams of Zein protein in 40 grams of the surfactant solution. Allow the mixture to stand at room temperature for 24 hours with frequent vigorous shaking. • 3. Filter the supernatant of the Zein/surfactant mixture using a syringe filter with a 0.45 micron Nylon membrane. Dilute the filtered solution 100-fold with 2% SDS solution (i.e., 0.1 gram filtered solution diluted in 10 grams of 2% SDS solution). As a reference, also prepare a diluted surfactant solution by mixing 0.1 grams of 5 wt. % surfactant solution with 10 grams of 2% SDS solution. • 4. The Zein concentration is determined using a UV/VIS spectrophotometer operated in the range 200-350 nm at a scanning rate of 800 nm/min, using a 2% SDS solution as the background. […] The Zein solubility in the 5 wt. % surfactant solution is C, times the dilution factor.
[…] Zein and surfactant were contacted for 24 hours.
Zein tests reported in Table V were all conducted at 45° C. rather than at room temperature.

Percent Zein Solubilized (Table I, pH 6.0, 5% total surfactant solutions, Zein and surfactant contacted 24 hours): 4.64%
Percent Zein Solubilized (Table II, comparators at pH 6.0): 4.11%
Percent Zein Solubilized (Table IV, C12 MAP blended with other carboxylic acids, pH 5.0): 3.52%
Percent Zein Solubilized (Table V, C12 MAP blended with fatty alcohols, pH 5.0, conducted at 45° C.): 3.52%
Percent Zein Solubilized (Table VI, negative controls, strong acid auxiliary agents, pH 5.0): 3.52%
Percent Zein Solubilized (Table VII, C12 MAP acid 60/40 weight ratio with auxiliary, combined 5% in water, amino acid counterion to pH 5, listed as 42): 3.55%
Percent Zein Solubilized (Table VII, C12 MAP acid 60/40 weight ratio with auxiliary, combined 5% in water, amino acid counterion to pH 5, listed as 46): 3.42%
Substance: Sodium lauryl ether sulfate [SLES]
